From patent US20010021697A1, “METHODS AND COMPOSITIONS FOR THE TREATMENT OF MAMMALIAN INFECTIONS EMPLOYING MEDICAMENTS COMPRISING HYMENOPTERA VENOM, PROTEINAGEOUS OR POLYPEPTIDE COMPONENTS THEREOF, OR ANALOGUES OF SUCH PROTEINACEOUS OR POLYPEPTIDE COMPONENTS” (priority 1987, published 2001)
Several values for one entry are separate records, joined by “and”; a condition that tells them apart may be missing. Equal entries are not always repeated. Where two headings read alike, the source gives them in different places.

Legend:
Assay type in all cases: cell-based
[1] = test system: Escherichia coli; assay: Growth curves with polymyxin B and bumble bee, yellowjacket or baldfaced hornet venom; conditions: 12 hours after innoculation; for optical density: single replicates; for optical density, AVERAGE: AVERAGE line
Method: The activity of hymenoptera venom other than HBV was also determined for bumblee venom, yellow jacket venom and bald faced hornet venom, as shown below in Tables 8, 9

[2] = test system: E. Coli strain No. G1108E; assay: Checkerboard titration synergy assay of natural melittin and analogue #6 with polymyxin B
[3] = test system: E. coli #G1880E
[4] = doses of what is present: Pol B 3.125 Units/ml, BB Venom 5 ug/ml
[5] = doses of what is present: Pol B 6.25 Units/ml, BB Venom 20 ug/ml

Polymyxin B
optical density ([1]; YJ 5 ug/ml, BF 5 ug/ml, Pol B 3.125 U/ml alone, Pol B 5 U/ml in the combinations): 1.14 | optical density, AVERAGE [1, 4]: 1.13 | optical density [1, 4]: 1.12 and 1.14 (2×) | optical density, AVERAGE [1, 5]: 1.03 | optical density [1, 5]: 1.03 (2×) and 1.04 | Average optical densities (OD660) ([2]; 0 hrs, doses of what is present: Polymyxin B 3 units, peptide 5 ug): .013 | Average optical densities (OD660) ([2]; 0 hrs, doses of what is present: Polymyxin B 6 units, peptide 10 ug): .013 | Average optical densities (OD660) ([2]; 2 hrs, doses of what is present: Polymyxin B 3 units, peptide 5 ug): .072 | Average optical densities (OD660) ([2]; 2 hrs, doses of what is present: Polymyxin B 6 units, peptide 10 ug): .072 | Average optical densities (OD660) ([2]; 4 hrs, doses of what is present: Polymyxin B 3 units, peptide 5 ug): .808 | Average optical densities (OD660) ([2]; 4 hrs, doses of what is present: Polymyxin B 6 units, peptide 10 ug): .423 | Average optical densities (OD660) ([2]; 6 hrs, doses of what is present: Polymyxin B 3 units, peptide 5 ug): 1.06 | Average optical densities (OD660) ([2]; 6 hrs, doses of what is present: Polymyxin B 6 units, peptide 10 ug): .840 | Average optical densities (OD660) ([2]; 8 hrs, doses of what is present: Polymyxin B 3 units, peptide 5 ug): 1.08 | Average optical densities (OD660) ([2]; 8 hrs, doses of what is present: Polymyxin B 6 units, peptide 10 ug): .911 | Average optical densities (OD660) ([2]; 12 hrs, doses of what is present: Polymyxin B 3 units, peptide 5 ug): 1.15 | Average optical densities (OD660) ([2]; 12 hrs, doses of what is present: Polymyxin B 6 units, peptide 10 ug): .930 | MEAN A660 ([3]; POLY B = 1.5, HBV = 0, T0): 0.012 | MEAN A660 ([3]; POLY B = 1.5, HBV = 0, T2): 0.040 | MEAN A660 ([3]; POLY B = 1.5, HBV = 0, T4): 0.411 | MEAN A660 ([3]; POLY B = 1.5, HBV = 0, T6): 0.984 | MEAN A660 ([3]; POLY B = 1.5, HBV = 0, T8): 1.020 | MEAN A660 ([3]; POLY B = 1.5, HBV = 0, T12): 1.075 | MEAN A660 ([3]; POLY B = 1.5, HBV = 0, T24): 1.200 | MEAN A660 ([3]; POLY B = 3, HBV = 0, T0): 0.012 | MEAN A660 ([3]; POLY B = 3, HBV = 0, T2): 0.040 | MEAN A660 ([3]; POLY B = 3, HBV = 0, T4): 0.138 | MEAN A660 ([3]; POLY B = 3, HBV = 0, T6): 0.642 | MEAN A660 ([3]; POLY B = 3, HBV = 0, T8): 0.943 | MEAN A660 ([3]; POLY B = 3, HBV = 0, T12): 0.985 | MEAN A660 ([3]; POLY B = 3, HBV = 0, T24): 1.116 | MEAN A660 ([3]; POLY B = 6, HBV = 0, T0): 0.012 | MEAN A660 ([3]; POLY B = 6, HBV = 0, T2): 0.040 | MEAN A660 ([3]; POLY B = 6, HBV = 0, T4): 0.022 | MEAN A660 ([3]; POLY B = 6, HBV = 0, T6): 0.014 | MEAN A660 ([3]; POLY B = 6, HBV = 0, T8): 0.011 | MEAN A660 ([3]; POLY B = 6, HBV = 0, T12): 0.109 | MEAN A660 ([3]; POLY B = 6, HBV = 0, T24): 0.975 | MEAN A660 ([3]; POLY B = 12, HBV = 0, T0): 0.012 | MEAN A660 ([3]; POLY B = 12, HBV = 0, T2): 0.040 | MEAN A660 ([3]; POLY B = 12, HBV = 0, T4): 0.018 | MEAN A660 ([3]; POLY B = 12, HBV = 0, T6): 0.011 | MEAN A660 ([3]; POLY B = 12, HBV = 0, T8): 0.009 | MEAN A660 ([3]; POLY B = 12, HBV = 0, T12): 0.075 | MEAN A660 ([3]; POLY B = 12, HBV = 0, T24): 0.472 | MEAN A660 ([3]; POLY B = 625, HBV = 0, T0): 0.006 | MEAN A660 ([3]; POLY B = 625, HBV = 0, T2): 0.074 | MEAN A660 ([3]; POLY B = 625, HBV = 0, T4): 0.330 | MEAN A660 ([3]; POLY B = 625, HBV = 0, T6): 0.766 | MEAN A660 ([3]; POLY B = 625, HBV = 0, T8): 1.048 | MEAN A660 ([3]; POLY B = 625, HBV = 0, T12): 1.238 | MEAN A660 ([3]; POLY B = 625, HBV = 0, T24): 1.401 | MEAN A660 ([3]; POLY B = 1250, HBV = 0, T0): 0.006 | MEAN A660 ([3]; POLY B = 1250, HBV = 0, T2): 0.074 | MEAN A660 ([3]; POLY B = 1250, HBV = 0, T4): 0.159 | MEAN A660 ([3]; POLY B = 1250, HBV = 0, T6): 0.172 | MEAN A660 ([3]; POLY B = 1250, HBV = 0, T8): 0.259 | MEAN A660 ([3]; POLY B = 1250, HBV = 0, T12): 0.778 | MEAN A660 ([3]; POLY B = 1250, HBV = 0, T24): 1.362 | MEAN A660 ([3]; POLY B = 2500, HBV = 0, T0): 0.006 | MEAN A660 ([3]; POLY B = 2500, HBV = 0, T2): 0.074 | MEAN A660 ([3]; POLY B = 2500, HBV = 0, T4): 0.123 | MEAN A660 ([3]; POLY B = 2500, HBV = 0, T6): 0.109 | MEAN A660 ([3]; POLY B = 2500, HBV = 0, T8): 0.167 | MEAN A660 ([3]; POLY B = 2500, HBV = 0, T12): 0.075 | MEAN A660 ([3]; POLY B = 2500, HBV = 0, T24): 1.037
